Source: PubChem BioAssay (NCI)
Where “and” joins values, the source holds several entries; their conditions need not be identical. Equal values may be shown once.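 These data come from cells grown in 96-well plates and exposed to compound for 48 hours at five concentrations. GI50 = concentration required for 50% inhibition of growth. TGI: total growth inhibition.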

Assays:
Assay in all cases: NCI-60 cell line screen, 48 h
[1] = tested on: OVCAR-8 ovarian
[2] = tested on: TK-10 renal
[3] = tested on: CAKI-1 renal
[4] = tested on: SF-268 CNS
[5] = tested on: CCRF-CEM leukemia
[6] = tested on: OVCAR-5 ovarian
[7] = tested on: MOLT-4 leukemia
[8] = tested on: K-562 leukemia
[9] = tested on: SN12C renal
[10] = tested on: HCC-2998 colon

SMILES | GI50 [1] | TGI [1] | GI50 [2] [µM] | TGI [2] | GI50 [3] [µM] | TGI [3] | GI50 [4] [µM] | TGI [4] | GI50 [5] [µM] | TGI [5] | GI50 [6] [µM] | TGI [6] | GI50 [7] [µM] | TGI [7] | GI50 [8] [µM] | TGI [8] | GI50 [9] [µM] | TGI [9] | GI50 [10] [µM] | TGI [10]
c1ccc(-c2nc3ccccc3[nH]2)c(OCCCCCOc2ccccc2-c2nc3ccccc3[nH]2)c1 | 21.7 µM | 53 µM | 13 | 30.8 µM | 12.5 | 29.9 µM | 3.44 | 23.2 µM | 4.14 | 29.8 µM | 20.2 | 62.6 µM | 5.58 | 47.5 µM | 4.35 | > 100 µM | 8.55 | 24.5 µM | 16.1 | 67.2 µM
COc1cc2c(c(OC)c1OC)-c1ccc(SC)c(=O)cc1C(CC(=O)Oc1ccccc1F)C2 (stereo unspecified) |  | > 7.5 µM |  | > 7.5 µM |  | > 7.5 µM |  | > 7.5 µM |  | > 7.5 µM |  | > 7.5 µM |  | > 7.5 µM |  | > 7.5 µM |  | > 7.5 µM |  | 0.373 µM
COc1ccc(N=C2C(=O)Nc3ccc(Br)cc32)cc1 |  | 32.2 µM |  | 56.9 µM |  | 60.6 µM |  | 57.2 µM |  | 37.2 µM |  | 58 µM |  | 74.4 µM |  | 33.2 µM |  | 40.1 µM |  | 37.4 µM
O=C(Nc1c(Cl)cc([N+](=O)[O-])cc1Cl)C(=O)C(C(=O)c1ccncc1)C1OC(=O)c2ccccc21 (stereo unspecified) |  | > 100 µM |  | > 100 µM |  | > 100 µM |  | > 100 µM |  | > 100 µM |  | > 100 µM |  | > 100 µM |  | > 100 µM |  | > 100 µM |  | > 100 µM
Cc1c(C(=O)/C=C/c2ccc3c(c2)OCO3)[n+](=O)c2ccccc2n1[O-] |  | 62.9 µM |  | 80.6 µM |  | 85.7 µM |  | > 100 µM |  | > 100 µM |  | 74.3 µM |  | 73.9 µM |  | > 100 µM |  | > 100 µM |  | 57.5 µM
COc1cc([N+](=O)[O-])c(S(=O)(=O)O)cc1-[n+]1nc(C(=O)Nc2ccccc2)nn1-c1ccc([N+](=O)[O-])c(S(=O)(=O)[O-])c1 |  |  |  | > 100 µM |  | > 100 µM |  | > 100 µM |  | > 100 µM |  | > 100 µM |  | > 100 µM |  | > 100 µM |  | > 100 µM |  | > 100 µM
CC(=O)OCCc1cc2ccccc2oc1=O |  | > 100 µM |  |  |  | > 100 µM |  | > 100 µM |  | > 100 µM |  | > 100 µM |  | > 100 µM |  | > 100 µM |  | > 100 µM |  | > 100 µM
O=S1(=O)CS(=O)(=O)OCCCCCO1 |  | > 100 µM |  | > 100 µM |  | > 100 µM |  | > 100 µM |  | > 100 µM |  | > 100 µM |  |  |  | > 100 µM |  | > 100 µM |  | > 100 µM
COc1cc2ccc(CC(=O)O)cc2cc1OC |  | > 100 µM |  | > 100 µM |  | > 100 µM |  | > 100 µM |  | > 100 µM |  |  |  | > 100 µM |  | > 100 µM |  | > 100 µM |  | > 100 µM
Cc1ccc(/C=C2\CCCC(C(NO)c3ccc(C)cc3)C2=NO)cc1 (stereo unspecified) |  | > 100 µM |  | > 100 µM |  | > 100 µM |  | 66.6 µM |  | 49.8 µM |  |  |  | 42.6 µM |  | > 100 µM |  | 38.8 µM |  | 62 µM
Nc1nc2c(ncn2C2OC(CO)C(O)C2O)c(=O)[nH]1 (stereo unspecified) | > 100 µM and 15 µM | > 100 µM and 204 µM |  |  | 55.5 | > 100 µM and 214 µM | > 100 | > 100 µM and 281 µM | 13.5 | > 100 µM and 217 µM |  | > 100 µM and 291 µM | 35.7 | > 100 µM and 121 µM | > 100 | > 100 µM and 233 µM | > 100 | > 100 µM and 162 µM | 78.7 | > 100 µM and 245 µM
Cc1ncc([N+](=O)[O-])n1CCOc1ccc(C(=O)/C=C/c2ccc(C(F)(F)F)cc2)cc1 | 2.09 µM | 5.57 µM |  |  | 2 | 5.25 µM | 2.72 | 8.49 µM | 2.02 | 6 µM | 2.93 | 14.4 µM | 2.17 | 6.29 µM | 1.53 | 3.83 µM | 3.03 | 11.6 µM | 5.85 | 18.3 µM
COc1ccc2cc1Oc1ccc(cc1)CC1c3c(cc(OC)c4c3Oc3cc5c(cc3O4)CCNC5C2)CCN1C (stereo unspecified) |  | 3.2 µM | 1.74 | 3.68 µM and 3.12 µM | 1.67 | 5.77 µM and 3.62 µM |  | 3.84 µM |  | 3.61 µM | 1.98 | 15.1 µM and 3.46 µM |  | 3.44 µM |  |  | 1.82 | 3.89 µM and 3.3 µM | 1.2 | 2.53 µM and 2.5 µM
CNc1ccc(CSc2ccc(C)cc2)cc1 | 40.5 µM | > 100 µM | 40.3 | > 100 µM | 7.94 | > 100 µM | 14.7 | > 100 µM | 0.676 | 12.2 µM | 71.3 | > 100 µM | 2.22 | 29.3 µM |  |  | 3.62 | 53.6 µM | 18.8 | 83.2 µM
CCOC(=O)c1cnc2c(ccc3ncccc32)c1OCC |  | > 100 µM |  | > 100 µM |  |  |  | > 100 µM |  | > 100 µM |  | > 100 µM |  | > 100 µM |  | > 100 µM |  | > 100 µM |  | > 100 µM
COc1cc2c(cc1OC)C(Sc1ccc(Cl)cc1)c1c(nc(N)c(C#N)c1N)O2 (stereo unspecified) | 1.39 µM | 2.76 µM | 1.43 | 2.75 µM |  |  | 1.65 | 3.17 µM | 0.311 | 2.63 µM | 1.89 | 3.88 µM | 0.917 | 4.89 µM | 0.791 | 8.28 µM | 1.51 | 2.94 µM | 1.72 | 3.25 µM
CC1(C)O[C@@H](CCl)C[C@@H](C#N)O1 |  | > 100 µM |  | > 100 µM |  | > 100 µM |  | > 100 µM |  | > 100 µM |  | > 100 µM |  | > 100 µM |  | > 100 µM |  |  |  | > 100 µM
COc1ccccc1CNCCCN1C(=O)c2ccc3c4c(ccc(c24)C1=O)C(=O)N(CCCNCCCCN)C3=O | 0.244 µM | 0.933 µM | 0.976 | 4.63 µM | 3.31 | > 42.4 µM | 0.29 | 1.68 µM | 0.304 | 3.28 µM | 1.06 | 7.97 µM | 0.324 | 1.26 µM | 0.298 | 1.27 µM |  |  | 0.171 | 0.417 µM
